These results are taken from patent US10584129B2, “Substituted 6,7-dihydropyrazolo[1,5-a]pyrazines as negative allosteric modulators of mGluR2 receptors” (Janssen Pharmaceutica NV, priority 2013, dated 2020).

The subject of the first assay is Wiga rats. The assay can be described thus: Reserpine interaction test in rats. Type of assay: in vivo, rat. As to conditions: PO, Time 60, reserpine 10 mg/kg SC, -1 h.
For the molecule `Cc1cc(-c2cnn3c2C(=O)N(c2ccc(C(F)(F)F)cc2)CC3(C)C)ccn1` [compound 171], the ED50 reversal of reserpine-induced ptosis was 5 mg/kg.

Staying with this assay, now noted: Rattus norvegicus, PO, Time 60, reserpine 10 mg/kg SC, -1 h, read-out: ED50 reversal of reserpine-induced ptosis.
`CNc1cc(-c2cnn3c2C(=O)N(c2ccc(C(F)(F)F)cc2)C[C@@H]3C)ccn1` [compound 147]: the ED50 worked out at 7.94 mg/kg.

`COc1cc(Cl)ccc1N1CC(C)n2ncc(-c3ccnc(C)c3)c2C1=O` (stereo not shown) [compound 161]: the ED50 came out at 3.15 mg/kg.

As to `Cc1cc(-c2cnn3c2C(=O)N(c2ccc(Cl)cc2Cl)C[C@@H]3C)ccn1` [compound 167], the ED50 is 0.1 mg/kg.

Consider `Cc1cc(-c2cnn3c2C(=O)N(c2ccc(Cl)cc2C)CC3C)ccn1` (stereo not shown) [compound 172], for which the ED50 was determined as 1.26 mg/kg.

In the case of `Cc1cc(-c2cnn3c2C(=O)N(c2ccc(C(F)(F)F)cn2)CC3C)cc(C)n1` (stereo not shown) [compound 194], the 50% effective dose (ED50) came out at 5 mg/kg.

In the case of `CCOc1ccc(Cl)c(N2CC(C)n3ncc(-c4ccnc(C)c4)c3C2=O)n1` (stereo not shown) [compound 195], the 50% effective dose (ED50) stood at 1.25 mg/kg.

Broadly, the ED50 is the dose at which the effect has come halfway, by size or by number of responders.
